Patent publication US20190276399A1, “POLYMORPH OF NINTEDANIB” (Olon S.P.A., priority 2016, published 2019)

Test: solubility in organic solvents and in water
Type: physicochemical
Conditions: in various organic solvents and in water; compared with nintedanib ethanesulphonate hemihydrate form known from WO 2004/013099

For `COC(=O)c1ccc2c(c1)NC(=O)/C2=C(\Nc1ccc(N(C)C(=O)CN2CCN(C)CC2)cc1)c1ccccc1` [methyl-(3Z)-3-{[(4-{methyl[(4-methylpiperazin-1-yl)acetyl]amino}phenyl)amino](phenyl)methylidene}-2-oxo-2,3-dihydro-1H-indole-6-carboxylate], the solubility was “better solubility in various organic solvents and in water”.
